Molecular target: T1, ανβ3 (the vitronectin receptor) (Homo sapiens, UniProt P05106+P06756)
T1 construct: Human placenta or human platelet ανβ3 (0.1-0.3 mg/mL) in buffer T; from tissue; host or cells: human placenta or human platelets
Assay: Solid-Phase [3H]-SK&F-107260 Binding to ανβ3 (inhibition of vitronectin binding)
Details: read-out: inhibits [3H]-SK&F-107260 binding to ανβ3 at a concentration
Experimental: Inhibition of vitronectin binding
Solid-Phase [^3H]-SK&F-107260 Binding to ανβ3: Human placenta or human platelet ανβ3 (0.1-0.3 mg/mL) in buffer T (containing 2 mM CaCl2 and 1% octylglucoside) was diluted with buffer T containing 1 mM CaCl2, 1 mM MnCl2, 1 mM MgCl2 (buffer A) and 0.05% NaN3, and then immediately added to 96-well ELISA plates (Corning, New York, N.Y.) at 0.1 mL per well. 0.1 - 0.2 μg of ανβ3 was added per well. The plates were incubated overnight at 4° C. At the time of the experiment, the wells were washed once with buffer A and were incubated with 0.1 mL of 3.5% bovine serum albumin in the same buffer for 1 hr at room temperature. Following incubation the wells were aspirated completely and washed twice with 0.2 mL buffer A. […]
The plates were incubated for 1 hr at room temperature. […] The receptors were solubilized with 0.1 mL of 1% SDS and the bound f^3H]-SK&F-107260 was determined by liquid scintillation counting with the addition of 3 mL Ready Safe in a Beckman LS Liquid Scintillation Counter, with 40% efficiency. Nonspecific binding of [^3H]-SK&F-107260 was determined in the presence of 2 μM SK&F-107260 and was consistently less than 1% of total radioligand input. […]

T1 sequence (P06756 31-889 limits assumed): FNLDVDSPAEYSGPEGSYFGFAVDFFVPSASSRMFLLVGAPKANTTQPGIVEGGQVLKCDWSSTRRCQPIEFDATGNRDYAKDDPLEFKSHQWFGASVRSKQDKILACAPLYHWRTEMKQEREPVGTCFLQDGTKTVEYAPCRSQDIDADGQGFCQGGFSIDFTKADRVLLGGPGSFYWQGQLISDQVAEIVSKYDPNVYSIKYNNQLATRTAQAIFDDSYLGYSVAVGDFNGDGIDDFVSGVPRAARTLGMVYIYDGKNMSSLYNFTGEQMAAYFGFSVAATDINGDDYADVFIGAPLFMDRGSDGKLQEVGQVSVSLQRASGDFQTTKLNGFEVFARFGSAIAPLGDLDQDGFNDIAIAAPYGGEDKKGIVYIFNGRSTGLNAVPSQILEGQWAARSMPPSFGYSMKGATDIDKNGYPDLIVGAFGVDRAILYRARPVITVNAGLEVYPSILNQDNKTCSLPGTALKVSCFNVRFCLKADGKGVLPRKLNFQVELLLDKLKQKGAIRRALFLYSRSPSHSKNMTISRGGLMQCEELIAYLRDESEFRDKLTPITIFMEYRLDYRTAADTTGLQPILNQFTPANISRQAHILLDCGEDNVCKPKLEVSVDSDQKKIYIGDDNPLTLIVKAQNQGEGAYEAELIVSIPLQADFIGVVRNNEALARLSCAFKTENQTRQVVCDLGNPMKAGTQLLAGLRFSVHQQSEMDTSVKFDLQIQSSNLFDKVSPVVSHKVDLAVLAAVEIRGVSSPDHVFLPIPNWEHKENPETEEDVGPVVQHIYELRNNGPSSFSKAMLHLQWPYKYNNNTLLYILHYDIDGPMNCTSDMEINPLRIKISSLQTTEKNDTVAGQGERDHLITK
T1 sequence (P06756 891-1048 partner limits assumed): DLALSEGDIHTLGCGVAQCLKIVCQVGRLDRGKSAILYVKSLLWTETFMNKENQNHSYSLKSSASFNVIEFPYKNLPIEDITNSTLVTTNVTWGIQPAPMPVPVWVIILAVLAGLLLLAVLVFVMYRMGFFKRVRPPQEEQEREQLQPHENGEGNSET
T1 sequence (P05106 27-788): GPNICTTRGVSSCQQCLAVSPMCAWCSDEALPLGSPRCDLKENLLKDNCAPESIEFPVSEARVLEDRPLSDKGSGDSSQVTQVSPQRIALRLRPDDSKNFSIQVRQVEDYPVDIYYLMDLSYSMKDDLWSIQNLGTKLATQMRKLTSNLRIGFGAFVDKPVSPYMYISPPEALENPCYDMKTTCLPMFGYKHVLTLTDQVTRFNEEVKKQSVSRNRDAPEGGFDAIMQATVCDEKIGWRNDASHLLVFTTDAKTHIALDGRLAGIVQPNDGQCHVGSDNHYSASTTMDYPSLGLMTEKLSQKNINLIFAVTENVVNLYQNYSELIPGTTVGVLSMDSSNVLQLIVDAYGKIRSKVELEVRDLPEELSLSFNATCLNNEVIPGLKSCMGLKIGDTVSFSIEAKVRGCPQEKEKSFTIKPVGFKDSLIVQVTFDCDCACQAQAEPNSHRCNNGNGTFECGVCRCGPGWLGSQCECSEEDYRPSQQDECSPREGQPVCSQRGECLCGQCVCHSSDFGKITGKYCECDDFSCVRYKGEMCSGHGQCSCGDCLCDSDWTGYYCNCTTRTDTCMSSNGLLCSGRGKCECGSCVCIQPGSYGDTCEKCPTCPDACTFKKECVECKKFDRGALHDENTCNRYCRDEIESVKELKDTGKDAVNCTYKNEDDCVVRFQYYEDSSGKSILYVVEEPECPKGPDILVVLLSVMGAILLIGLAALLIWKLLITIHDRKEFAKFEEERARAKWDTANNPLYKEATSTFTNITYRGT

Cc1ccnc(NCCCOc2ccc3c(c2)CN(Cc2ccc(C(F)(F)F)cc2)C(=O)[C@H](CC(=O)O)C3)c1 [Example 1, (S)-8-[3-(4-methylpyridin-2-ylamino)-1-propyloxy]-3-oxo-2-[4-(trifluoromethyl)benzyl]-2,3,4,5-tetrahydro-1 H-2-benzazepine-4-acetic acid] showed an IC50 of roughly 3 nM.

— patent US20010014737A1, “Vitronectin receptor antagonist” (priority 1997, published 2001)
